Measured values taken from paper PMC7154053, “Chemical, Metabolic, and Cellular Characterization of a FtsZ Inhibitor Effective Against Burkholderia cenocepacia” (Frontiers in Microbiology, 2020).

How the values were obtained:
[1] = tested on: P. aeruginosa; test: Checkerboard assay with efflux pump inhibitor PaβN MC-207.110; type: cell-based, Pseudomonas aeruginosa
Experimental: The microtiter plates were incubated at 37°C for 48 (for B. cenocepacia) or 24 h (for all the other strains) and growth was determined by the resazurin method (Martin et al., [2006]). A solution of resazurin sodium salt (Sigma Aldrich) was prepared at 0.01% in distilled water and filter-sterilized. Thirty microliter of resazurin solution were added to each well after 1 or 2 days of incubation at 37°C, and the microtiters were re-incubated at the same temperature for 4 h. The MIC was defined as the lowest concentration of the drug that prevented a change in color from blue to pink, which indicates bacterial growth. […] Three independent biological replicates were used for each MIC determination.

[2] = biological target: Burkholderia cenocepacia purified FtsZ protein (Burkholderia cenocepacia, UniProt B4E5Y7); test: biochemical; type: biochemical; details: Yes/No
Chain of Burkholderia cenocepacia purified FtsZ protein (B4E5Y7 entry or part of it): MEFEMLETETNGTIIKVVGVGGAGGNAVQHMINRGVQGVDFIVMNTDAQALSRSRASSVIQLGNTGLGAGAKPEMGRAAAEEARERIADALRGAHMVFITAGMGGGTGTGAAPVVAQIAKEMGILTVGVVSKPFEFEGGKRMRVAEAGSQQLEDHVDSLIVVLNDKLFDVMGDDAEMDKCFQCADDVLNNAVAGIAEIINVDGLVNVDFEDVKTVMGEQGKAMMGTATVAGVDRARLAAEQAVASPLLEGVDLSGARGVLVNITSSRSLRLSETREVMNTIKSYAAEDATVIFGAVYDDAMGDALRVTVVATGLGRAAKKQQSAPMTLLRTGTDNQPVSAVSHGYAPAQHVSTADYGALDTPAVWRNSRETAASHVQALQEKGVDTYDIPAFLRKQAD

[3] = biological target: T1, PAO1-FtsZ (Pseudomonas aeruginosa, UniProt P47204); test: FtsZ GTPase activity assay (kinetics and inhibition); type: biochemical; details: read-out: IC50 toward PAO1-FtsZ
T1 construct: His-tag of pET-28a followed by PreScission site (His-tag inferred from the vector; the site is encoded in the forward primer) (N); made in house; host or cells: E. coli BL21(DE3)
T1 sequence (P47204 2-316): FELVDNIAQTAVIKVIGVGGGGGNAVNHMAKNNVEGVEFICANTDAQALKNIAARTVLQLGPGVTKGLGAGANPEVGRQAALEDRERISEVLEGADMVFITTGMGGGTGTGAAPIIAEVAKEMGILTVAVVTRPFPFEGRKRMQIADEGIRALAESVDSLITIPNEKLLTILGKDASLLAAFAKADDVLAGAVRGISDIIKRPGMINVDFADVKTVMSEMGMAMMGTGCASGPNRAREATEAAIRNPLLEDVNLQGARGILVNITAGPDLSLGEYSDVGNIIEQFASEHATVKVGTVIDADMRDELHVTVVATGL
Experimental: The gene ftsZ (BCAL3457) was amplified from B. cenocepacia FCF19 using the primers pet28presFtsZfor (5′-[…]-3′) and pet28ftsZrev (5′-[…]-3′). The gene ftsZ of P. aeruginosa was amplified from the genomic DNA using the primers ftsZPAOfor28a (5′-[…] 3′) and ftsZPAOrev28a (5′-[…]-3′). The PCR products were cloned into the pET-28a vector (Novagen) using the In-Fusion HD Cloning kit (TaKaRa), according to the manufacturer's instructions.
All the recombinant FtsZ proteins were expressed at 20°C overnight in E. coli BL21(DE3) cells, upon induction with 0.5 mM IPTG, and purified using the same protocol assessed for the wild-type B. cenocepacia FtsZ (Hogan et al., [2018]).
GTPase enzyme activity was determined using a pyruvate kinase/L-lactic dehydrogenase (PK/LDH) spectrophotometric coupled assay (Ingerman and Nunnari, [2005]). The assays were performed at 30°C, in a reaction mixture containing […] Hepes pH 7.5, 5 mM MgCl2, 5 mM KCl, 10 U PK/LDH, 0.25 mM NADH, 0.25 mM PEP, and 5–10 μM FtsZ, and initiated by the addition of 0.5 mM GTP. Alternatively, GTPase activity was determined by measuring the release of phosphate using the malachite green assay (Baykov et al., [1988]).
Steady-state kinetic analysis was performed by assaying the activity at different GTP concentrations and parameters determined by fitting the data to the Michaelis-Menten equation using Origin 8 software. […]

[4] = tested on: CF bronchial epithelial (CFBE41o-) cell line; parameters: method as in Hogan et al., 2018; Costabile et al., 2020; details: CFBE41o- cells; ref Hogan et al., 2018; Costabile et al., 2020; cited from earlier work

COC(=O)CSc1ccc2nsnc2c1[N+](=O)[O-] [C109, methyl [(4-nitro-2,1,3-benzothiadiazol-5-yl)thio]acetate]
MIC ([1]; Pseudomonas aeruginosa, read-out: MIC in the presence of MC-207.110, P. aeruginosa): 1 µg/mL | effect of combination with MC-207.110 ([1]; checkerboard, P. aeruginosa): synergistic effect | Inhibition of Bc FtsZ At 100 μM ([2]; 100 μM compound): Yes | Inhibits B. cenocepacia FtsZ GTPase at 100µM? ([2]; 100 µM, Supplementary Table 1): Yes | IC50 [3]: 3.5 ± 1.9 µM | toxic concentration at 50% (TC50) [4]: about 75 μM
